In PubChem BioAssay (NCI):
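The compound was tested at five concentrations on cells cultured in 96-well plates, with a 48-hour exposure period. Definition used: TGI = concentration required for complete inhibition of growth.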

Key:
Assay in all cases: DTP human tumour cell line panel, 48 h
786-0 renal = tested on: 786-0 renal
A498 renal = tested on: A498 renal
A549 NSCLC = tested on: A549 NSCLC
ACHN renal = tested on: ACHN renal
BT-549 breast = tested on: BT-549 breast
CAKI-1 renal = tested on: CAKI-1 renal
CCRF-CEM leukemia = tested on: CCRF-CEM leukemia
COLO 205 colon = tested on: COLO 205 colon
DU-145 prostate = tested on: DU-145 prostate
EKVX NSCLC = tested on: EKVX NSCLC
HCC-2998 colon = tested on: HCC-2998 colon
HCT-116 colon = tested on: HCT-116 colon
HCT-15 colon = tested on: HCT-15 colon
HL-60(TB) leukemia = tested on: HL-60(TB) leukemia
HOP-62 NSCLC = tested on: HOP-62 NSCLC
HOP-92 NSCLC = tested on: HOP-92 NSCLC
HS 578T breast = tested on: HS 578T breast
HT29 colon = tested on: HT29 colon
IGROV1 ovarian = tested on: IGROV1 ovarian
K-562 leukemia = tested on: K-562 leukemia
KM12 colon = tested on: KM12 colon
M14 melanoma = tested on: M14 melanoma
MALME-3M melanoma = tested on: MALME-3M melanoma
MCF7 breast = tested on: MCF7 breast
MDA-MB-231 breast = tested on: MDA-MB-231 breast
MDA-MB-435 = tested on: MDA-MB-435
MDA-N = tested on: MDA-N
MOLT-4 leukemia = tested on: MOLT-4 leukemia
NCI-H226 lung = tested on: NCI-H226 lung
NCI-H23 lung = tested on: NCI-H23 lung
NCI-H460 lung = tested on: NCI-H460 lung
NCI-H522 lung = tested on: NCI-H522 lung
NCI/ADR-RES ovarian = tested on: NCI/ADR-RES ovarian
OVCAR-3 ovarian = tested on: OVCAR-3 ovarian
OVCAR-4 ovarian = tested on: OVCAR-4 ovarian
OVCAR-5 ovarian = tested on: OVCAR-5 ovarian
OVCAR-8 ovarian = tested on: OVCAR-8 ovarian
PC-3 prostate = tested on: PC-3 prostate
RPMI-8226 leukemia = tested on: RPMI-8226 leukemia
RXF 393 renal = tested on: RXF 393 renal
SF-268 CNS = tested on: SF-268 CNS
SF-295 CNS = tested on: SF-295 CNS
SF-539 CNS = tested on: SF-539 CNS
SK-MEL-2 melanoma = tested on: SK-MEL-2 melanoma
SK-MEL-28 melanoma = tested on: SK-MEL-28 melanoma
SK-MEL-5 melanoma = tested on: SK-MEL-5 melanoma
SK-OV-3 ovarian = tested on: SK-OV-3 ovarian
SN12C renal = tested on: SN12C renal
SNB-19 CNS = tested on: SNB-19 CNS
SNB-75 CNS = tested on: SNB-75 CNS
SR leukemia = tested on: SR leukemia
SW-620 colon = tested on: SW-620 colon
T-47D breast = tested on: T-47D breast
TK-10 renal = tested on: TK-10 renal
U251 CNS = tested on: U251 CNS
UACC-257 melanoma = tested on: UACC-257 melanoma
UACC-62 melanoma = tested on: UACC-62 melanoma
UO-31 renal = tested on: UO-31 renal
LOX IMVI melanoma = tested on: LOX IMVI melanoma

CCOC(=O)Nc1cc2ccccc2c(N=Nc2ccccc2)c1O
TGI (786-0 renal): > 100 µM | TGI (A498 renal): > 100 µM | TGI (A549 NSCLC): > 100 µM | TGI (ACHN renal): > 100 µM | TGI (BT-549 breast): > 100 µM | TGI (CAKI-1 renal): > 100 µM | TGI (CCRF-CEM leukemia): > 100 µM | TGI (COLO 205 colon): > 100 µM | TGI (DU-145 prostate): > 100 µM | TGI (EKVX NSCLC): > 100 µM | TGI (HCC-2998 colon): > 100 µM | TGI (HCT-116 colon): > 100 µM | TGI (HCT-15 colon): > 100 µM | TGI (HL-60(TB) leukemia): > 100 µM | TGI (HOP-62 NSCLC): > 100 µM | TGI (HOP-92 NSCLC): > 100 µM | TGI (HS 578T breast): > 100 µM | TGI (HT29 colon): > 100 µM | TGI (IGROV1 ovarian): > 100 µM | TGI (K-562 leukemia): > 100 µM | TGI (KM12 colon): > 100 µM | TGI (M14 melanoma): > 100 µM | TGI (MALME-3M melanoma): > 100 µM | TGI (MCF7 breast): > 100 µM | TGI (MDA-MB-231 breast): > 100 µM | TGI (MDA-MB-435): > 100 µM | TGI (MDA-N): > 100 µM | TGI (MOLT-4 leukemia): > 100 µM | TGI (NCI-H226 lung): > 100 µM | TGI (NCI-H23 lung): > 100 µM | TGI (NCI-H460 lung): > 100 µM | TGI (NCI-H522 lung): > 100 µM | TGI (NCI/ADR-RES ovarian): > 100 µM | TGI (OVCAR-3 ovarian): > 100 µM | TGI (OVCAR-4 ovarian): 49.3 µM | TGI (OVCAR-5 ovarian): > 100 µM | TGI (OVCAR-8 ovarian): > 100 µM | TGI (PC-3 prostate): > 100 µM | TGI (RPMI-8226 leukemia): > 100 µM | TGI (RXF 393 renal): 69.4 µM | TGI (SF-268 CNS): > 100 µM | TGI (SF-295 CNS): > 100 µM | TGI (SF-539 CNS): 35.8 µM | TGI (SK-MEL-2 melanoma): > 100 µM | TGI (SK-MEL-28 melanoma): > 100 µM | TGI (SK-MEL-5 melanoma): > 100 µM | TGI (SK-OV-3 ovarian): > 100 µM | TGI (SN12C renal): > 100 µM | TGI (SNB-19 CNS): > 100 µM | TGI (SNB-75 CNS): > 100 µM | TGI (SR leukemia): > 100 µM | TGI (SW-620 colon): > 100 µM | TGI (T-47D breast): > 100 µM | TGI (TK-10 renal): > 100 µM | TGI (U251 CNS): > 100 µM | TGI (UACC-257 melanoma): > 100 µM | TGI (UACC-62 melanoma): > 100 µM | TGI (UO-31 renal): > 100 µM

CCCCOP(C)(=O)C(NC(=O)OCC)(C(F)(F)F)C(F)(F)F (stereo unspecified)
TGI (A498 renal): > 100 µM | TGI (A549 NSCLC): > 100 µM | TGI (ACHN renal): > 100 µM | TGI (BT-549 breast): > 100 µM | TGI (CAKI-1 renal): > 100 µM | TGI (CCRF-CEM leukemia): > 100 µM | TGI (COLO 205 colon): > 100 µM | TGI (DU-145 prostate): > 100 µM | TGI (EKVX NSCLC): > 100 µM | TGI (HCC-2998 colon): > 100 µM | TGI (HCT-116 colon): > 100 µM | TGI (HCT-15 colon): > 100 µM | TGI (HL-60(TB) leukemia): > 100 µM | TGI (HOP-62 NSCLC): > 100 µM | TGI (HOP-92 NSCLC): > 100 µM | TGI (HS 578T breast): > 100 µM | TGI (HT29 colon): > 100 µM | TGI (IGROV1 ovarian): > 100 µM | TGI (K-562 leukemia): > 100 µM | TGI (KM12 colon): > 100 µM | TGI (LOX IMVI melanoma): > 100 µM | TGI (M14 melanoma): > 100 µM | TGI (MALME-3M melanoma): > 100 µM | TGI (MCF7 breast): > 100 µM | TGI (MDA-MB-231 breast): > 100 µM | TGI (MDA-MB-435): > 100 µM | TGI (MDA-N): > 100 µM | TGI (MOLT-4 leukemia): > 100 µM | TGI (NCI-H226 lung): > 100 µM | TGI (NCI-H23 lung): > 100 µM | TGI (NCI-H460 lung): > 100 µM | TGI (NCI-H522 lung): > 100 µM | TGI (NCI/ADR-RES ovarian): > 100 µM | TGI (OVCAR-3 ovarian): > 100 µM | TGI (OVCAR-4 ovarian): > 100 µM | TGI (OVCAR-5 ovarian): > 100 µM | TGI (OVCAR-8 ovarian): > 100 µM | TGI (PC-3 prostate): > 100 µM | TGI (RPMI-8226 leukemia): > 100 µM | TGI (RXF 393 renal): > 100 µM | TGI (SF-268 CNS): > 100 µM | TGI (SF-295 CNS): > 100 µM | TGI (SF-539 CNS): > 100 µM | TGI (SK-MEL-2 melanoma): > 100 µM | TGI (SK-MEL-28 melanoma): > 100 µM | TGI (SK-MEL-5 melanoma): > 100 µM | TGI (SK-OV-3 ovarian): > 100 µM | TGI (SN12C renal): > 100 µM | TGI (SNB-19 CNS): > 100 µM | TGI (SNB-75 CNS): > 100 µM | TGI (SR leukemia): > 100 µM | TGI (SW-620 colon): > 100 µM | TGI (T-47D breast): > 100 µM | TGI (TK-10 renal): > 100 µM | TGI (U251 CNS): > 100 µM | TGI (UACC-257 melanoma): > 100 µM | TGI (UACC-62 melanoma): > 100 µM | TGI (UO-31 renal): > 100 µM
